Data: the NIST ThermoML archive (doi:10.1007/s10765-006-0051-4)
± gives the expanded uncertainty stated by the source.

Assay: xn = mol fraction of the nth substance listed
Details: Gas, Oscillating disk viscometry

FC(F)C(F)(F)F [pentafluoroethane] + CCC
Details | viscosity [mPa·s]
298.15 K, 101.2 kPa, x1 = 0.7503 | 0.01219 ± 0.00044
298.15 K, 102 kPa, x1 = 0.5011 | 0.01122 ± 0.00042
298.15 K, 197.9 kPa, x1 = 0.7503 | 0.01223 ± 0.00044
298.15 K, 198.2 kPa, x1 = 0.5011 | 0.01121 ± 0.00042
298.15 K, 294.6 kPa, x1 = 0.7503 | 0.01221 ± 0.00044
298.15 K, 302.6 kPa, x1 = 0.5011 | 0.01121 ± 0.00042
298.15 K, 391.5 kPa, x1 = 0.7503 | 0.01222 ± 0.00044
298.15 K, 396.1 kPa, x1 = 0.5011 | 0.01123 ± 0.00042
298.15 K, 492.3 kPa, x1 = 0.7503 | 0.01223 ± 0.00044
298.15 K, 499.4 kPa, x1 = 0.5011 | 0.01123 ± 0.00042
298.15 K, 589.1 kPa, x1 = 0.7503 | 0.01225 ± 0.00044
298.15 K, 591.1 kPa, x1 = 0.5011 | 0.01124 ± 0.00042
298.15 K, 687.4 kPa, x1 = 0.5011 | 0.01125 ± 0.00042
298.15 K, 689 kPa, x1 = 0.7503 | 0.01229 ± 0.00044
298.15 K, 789 kPa, x1 = 0.5011 | 0.01128 ± 0.00042
298.15 K, 803.5 kPa, x1 = 0.7503 | 0.01229 ± 0.00044
298.15 K, 913.4 kPa, x1 = 0.7503 | 0.01235 ± 0.00044
298.15 K, 928.2 kPa, x1 = 0.5011 | 0.01131 ± 0.00042
298.15 K, 1012.4 kPa, x1 = 0.7503 | 0.01248 ± 0.00044
298.15 K, 1025.1 kPa, x1 = 0.5011 | 0.01138 ± 0.00042
298.15 K, 1231.3 kPa, x1 = 0.7503 | 0.01257 ± 0.00045
323.15 K, 101.8 kPa, x1 = 0.5011 | 0.01214 ± 0.00044
323.15 K, 102.2 kPa, x1 = 0.7503 | 0.01319 ± 0.00046
323.15 K, 199 kPa, x1 = 0.7503 | 0.01317 ± 0.00046
323.15 K, 213.9 kPa, x1 = 0.5011 | 0.01213 ± 0.00044
323.15 K, 294.9 kPa, x1 = 0.7503 | 0.0132 ± 0.00046
323.15 K, 391.1 kPa, x1 = 0.7503 | 0.01321 ± 0.00046
323.15 K, 395.8 kPa, x1 = 0.5011 | 0.01215 ± 0.00044
323.15 K, 519.4 kPa, x1 = 0.7503 | 0.01322 ± 0.00046
323.15 K, 592.8 kPa, x1 = 0.5011 | 0.01219 ± 0.00044
323.15 K, 636.3 kPa, x1 = 0.7503 | 0.01325 ± 0.00046
323.15 K, 766.4 kPa, x1 = 0.7503 | 0.01326 ± 0.00046
323.15 K, 788.9 kPa, x1 = 0.5011 | 0.01225 ± 0.00044
323.15 K, 883.2 kPa, x1 = 0.7503 | 0.01334 ± 0.00046
323.15 K, 983.8 kPa, x1 = 0.5011 | 0.01228 ± 0.00044
323.15 K, 1005.1 kPa, x1 = 0.7503 | 0.01339 ± 0.00047
323.15 K, 1125.1 kPa, x1 = 0.7503 | 0.01346 ± 0.00047
323.15 K, 1181.8 kPa, x1 = 0.5011 | 0.01241 ± 0.00044
323.15 K, 1249.7 kPa, x1 = 0.7503 | 0.01351 ± 0.00047
323.15 K, 1371.2 kPa, x1 = 0.7503 | 0.01361 ± 0.00047
323.15 K, 1374.9 kPa, x1 = 0.5011 | 0.01255 ± 0.00045
323.15 K, 1486.3 kPa, x1 = 0.7503 | 0.01367 ± 0.00047
323.15 K, 1618.9 kPa, x1 = 0.7503 | 0.01379 ± 0.00047
323.15 K, 1667.7 kPa, x1 = 0.5011 | 0.01272 ± 0.00045
323.15 K, 1736.1 kPa, x1 = 0.7503 | 0.01387 ± 0.00048
323.15 K, 1862.6 kPa, x1 = 0.5011 | 0.01289 ± 0.00046
323.15 K, 1864.4 kPa, x1 = 0.7503 | 0.01404 ± 0.00048
323.15 K, 1985.7 kPa, x1 = 0.5011 | 0.013 ± 0.00046
323.15 K, 1992.1 kPa, x1 = 0.7503 | 0.0142 ± 0.00049
323.15 K, 2071.4 kPa, x1 = 0.5011 | 0.01314 ± 0.00046
323.15 K, 2101.6 kPa, x1 = 0.7503 | 0.01435 ± 0.00049
323.15 K, 2211.6 kPa, x1 = 0.7503 | 0.01452 ± 0.00049
323.15 K, 2349.2 kPa, x1 = 0.7503 | 0.01482 ± 0.0005
348.15 K, 101.1 kPa, x1 = 0.5011 | 0.01295 ± 0.00046
348.15 K, 101.4 kPa, x1 = 0.7503 | 0.01409 ± 0.00048
348.15 K, 198.4 kPa, x1 = 0.5011 | 0.01299 ± 0.00046
348.15 K, 199.7 kPa, x1 = 0.7503 | 0.01407 ± 0.00048
348.15 K, 305.5 kPa, x1 = 0.5011 | 0.01297 ± 0.00046
348.15 K, 388.2 kPa, x1 = 0.7503 | 0.01416 ± 0.00048
348.15 K, 401.6 kPa, x1 = 0.5011 | 0.01296 ± 0.00046
348.15 K, 588.6 kPa, x1 = 0.7503 | 0.01424 ± 0.00049
348.15 K, 592.5 kPa, x1 = 0.5011 | 0.01307 ± 0.00046
348.15 K, 750.8 kPa, x1 = 0.7503 | 0.01427 ± 0.00049
348.15 K, 784.8 kPa, x1 = 0.5011 | 0.01316 ± 0.00046
348.15 K, 978.4 kPa, x1 = 0.7503 | 0.01432 ± 0.00049
348.15 K, 986 kPa, x1 = 0.5011 | 0.01318 ± 0.00046
348.15 K, 1173.8 kPa, x1 = 0.7503 | 0.01443 ± 0.00049
348.15 K, 1178.4 kPa, x1 = 0.5011 | 0.01326 ± 0.00046
348.15 K, 1374.6 kPa, x1 = 0.5011 | 0.01335 ± 0.00046
348.15 K, 1374.7 kPa, x1 = 0.7503 | 0.01455 ± 0.00049
348.15 K, 1565.7 kPa, x1 = 0.7503 | 0.01468 ± 0.0005
348.15 K, 1571.2 kPa, x1 = 0.5011 | 0.0135 ± 0.00047
348.15 K, 1770.2 kPa, x1 = 0.7503 | 0.01482 ± 0.0005
348.15 K, 1772.3 kPa, x1 = 0.5011 | 0.01362 ± 0.00047
348.15 K, 1960.9 kPa, x1 = 0.5011 | 0.01374 ± 0.00047
348.15 K, 1963.9 kPa, x1 = 0.7503 | 0.01499 ± 0.0005
348.15 K, 2130.4 kPa, x1 = 0.7503 | 0.01511 ± 0.00051
348.15 K, 2139.9 kPa, x1 = 0.5011 | 0.01387 ± 0.00048
348.15 K, 2297.9 kPa, x1 = 0.5011 | 0.01404 ± 0.00048
348.15 K, 2335.5 kPa, x1 = 0.7503 | 0.01538 ± 0.00051
348.15 K, 2492.4 kPa, x1 = 0.7503 | 0.01555 ± 0.00052
348.15 K, 2501 kPa, x1 = 0.5011 | 0.0143 ± 0.00049
348.15 K, 2660.6 kPa, x1 = 0.7503 | 0.01583 ± 0.00052
348.15 K, 2695.6 kPa, x1 = 0.5011 | 0.01451 ± 0.00049
348.15 K, 2804.7 kPa, x1 = 0.7503 | 0.01604 ± 0.00053
348.15 K, 2928.8 kPa, x1 = 0.7503 | 0.01629 ± 0.00053
348.15 K, 2932.5 kPa, x1 = 0.5011 | 0.01494 ± 0.0005
348.15 K, 3079.4 kPa, x1 = 0.7503 | 0.01666 ± 0.00054
348.15 K, 3111.7 kPa, x1 = 0.5011 | 0.01524 ± 0.00051
348.15 K, 3230.6 kPa, x1 = 0.7503 | 0.01697 ± 0.00055
348.15 K, 3383.2 kPa, x1 = 0.7503 | 0.01739 ± 0.00056
373.15 K, 101 kPa, x1 = 0.7503 | 0.01505 ± 0.00051
373.15 K, 101.5 kPa, x1 = 0.5011 | 0.01376 ± 0.00047
373.15 K, 220 kPa, x1 = 0.7503 | 0.01506 ± 0.00051
373.15 K, 225.5 kPa, x1 = 0.5011 | 0.01381 ± 0.00048
373.15 K, 389.7 kPa, x1 = 0.7503 | 0.0151 ± 0.00051
373.15 K, 397.7 kPa, x1 = 0.5011 | 0.01383 ± 0.00048
373.15 K, 585.6 kPa, x1 = 0.5011 | 0.01386 ± 0.00048
373.15 K, 637.7 kPa, x1 = 0.7503 | 0.01515 ± 0.00051
373.15 K, 781.4 kPa, x1 = 0.5011 | 0.01393 ± 0.00048
373.15 K, 877.8 kPa, x1 = 0.7503 | 0.01525 ± 0.00051
373.15 K, 980.5 kPa, x1 = 0.5011 | 0.01401 ± 0.00048
373.15 K, 1141.8 kPa, x1 = 0.7503 | 0.01537 ± 0.00051
373.15 K, 1174.2 kPa, x1 = 0.5011 | 0.01407 ± 0.00048
373.15 K, 1370.5 kPa, x1 = 0.5011 | 0.01413 ± 0.00048
373.15 K, 1477.4 kPa, x1 = 0.7503 | 0.01552 ± 0.00052
373.15 K, 1560.4 kPa, x1 = 0.5011 | 0.01422 ± 0.00049
373.15 K, 1717 kPa, x1 = 0.7503 | 0.01566 ± 0.00052
373.15 K, 1753.9 kPa, x1 = 0.5011 | 0.01434 ± 0.00049
373.15 K, 1949.4 kPa, x1 = 0.5011 | 0.01447 ± 0.00049
373.15 K, 1961.1 kPa, x1 = 0.7503 | 0.01583 ± 0.00052
373.15 K, 2125.3 kPa, x1 = 0.5011 | 0.01458 ± 0.00049
373.15 K, 2185.2 kPa, x1 = 0.7503 | 0.01605 ± 0.00053
373.15 K, 2318.9 kPa, x1 = 0.5011 | 0.01469 ± 0.0005
373.15 K, 2415.9 kPa, x1 = 0.7503 | 0.01623 ± 0.00053
373.15 K, 2508.1 kPa, x1 = 0.5011 | 0.01487 ± 0.0005
373.15 K, 2631.2 kPa, x1 = 0.7503 | 0.01641 ± 0.00054
373.15 K, 2708.4 kPa, x1 = 0.5011 | 0.01508 ± 0.00051
373.15 K, 2950.3 kPa, x1 = 0.7503 | 0.01679 ± 0.00055
373.15 K, 2961.4 kPa, x1 = 0.5011 | 0.01536 ± 0.00051
373.15 K, 3209.9 kPa, x1 = 0.7503 | 0.01714 ± 0.00055
373.15 K, 3217 kPa, x1 = 0.5011 | 0.01568 ± 0.00052
373.15 K, 3421.2 kPa, x1 = 0.7503 | 0.01749 ± 0.00056
